Seven molecules from patent US20250339566A1, “INHIBITORS OF FIBROBLAST ACTIVATION PROTEIN” (UNIVERSITEIT ANTWERPEN, priority 2022, published 2025) can be followed below.

Where two headings read alike, the source gives them in different places.

What all share (assay type): biochemical
Assay [1] addresses T1, human FAP (Homo sapiens, UniProt Q12884).
T1 construct: the human secretion signal was replaced with the HoneyBee mellitin secretion signal; honeybee melittin secretion signal (replaces the native signal) (N); made in house; host or cells: Sf9 insect cells (baculovirus), purified from supernatant
T1 sequence (Q12884 26-760 limits assumed): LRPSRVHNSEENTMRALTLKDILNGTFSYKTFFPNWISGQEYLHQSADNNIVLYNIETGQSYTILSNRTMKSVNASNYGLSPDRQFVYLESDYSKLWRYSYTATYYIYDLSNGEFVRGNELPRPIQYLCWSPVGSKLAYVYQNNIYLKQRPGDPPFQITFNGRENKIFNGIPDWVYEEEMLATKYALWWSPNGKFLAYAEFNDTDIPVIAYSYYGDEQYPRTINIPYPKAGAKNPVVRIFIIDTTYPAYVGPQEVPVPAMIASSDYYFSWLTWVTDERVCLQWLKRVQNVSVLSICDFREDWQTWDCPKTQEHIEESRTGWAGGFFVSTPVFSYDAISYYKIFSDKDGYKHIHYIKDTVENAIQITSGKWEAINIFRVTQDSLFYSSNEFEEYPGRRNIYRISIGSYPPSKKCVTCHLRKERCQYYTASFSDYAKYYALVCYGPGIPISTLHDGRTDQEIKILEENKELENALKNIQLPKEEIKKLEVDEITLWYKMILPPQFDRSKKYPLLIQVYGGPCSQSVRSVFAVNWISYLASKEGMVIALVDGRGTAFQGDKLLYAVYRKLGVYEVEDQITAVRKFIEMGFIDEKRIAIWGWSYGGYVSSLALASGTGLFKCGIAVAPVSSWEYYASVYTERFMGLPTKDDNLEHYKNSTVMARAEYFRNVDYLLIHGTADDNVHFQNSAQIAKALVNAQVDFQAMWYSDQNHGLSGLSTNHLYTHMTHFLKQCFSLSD
Description: FAP IC50 measurement (Z-Gly-Pro-AMC). To be noted: Z-Gly-Pro-AMC 50 μM, pH 8, 15 min pre-incubation. The source says: (§1) Used Enzymes in these Assays: • A gateway-entry clone for human FAP was purchased from Dharmacon (Accession number DQ891423) and the human secretion signal was replaced with the HoneyBee mellitin secretion signal. For transfection and expression of FAP in Sf9 insect cells the C-terminal BaculoDirect kit from LifeTechnologies was used. The enzyme was purified from the supernatant of the insect cells using immobilized Ni-chelating chromatography (GE healthcare, Diegem, Belgium), followed by anion-exchange chromatography using a 1 mL HiTrap Q and size exclusion chromatography using the Superdex 200 column (GE healthcare, Diegem, Belgium). • Human recombinant PREP was expressed in BL21(DE3) cells and purified using immobilized Co-chelating chromatography (GE healthcare), followed by anion-exchange chromatography on a 1 ml Mono Q column (GE healthcare). • DPP4 was purified from human seminal plasma. • Gateway-entry clones for human DPP8 and DPP9 were purchased from Dharmacon (Accession numbers DQ891733 and DQ892325 respectively). For transfection and expression of DPP8 and DPP9 in Sf9 insect cells the N-terminal BaculoDirect kit from LifeTechnologies was used. The enzymes were purified using immobilized Ni-chelating chromatography (GE healthcare, Diegem, Belgium), followed by anion-exchange chromatography using a 1 mL Mono Q (GE healthcare, Diegem, Belgium). • Recombinant human DPP2 was purchased from R&D.
(§2) Eight concentrations of inhibitors/probe were tested. The final DMSO concentration was kept constant during the experiment to exclude any effects. Inhibitors were pre-incubated with the enzyme for 15 minutes at 37° C., afterwards the substrate was added and the velocities of AMC release were measured kinetically at λex=380 nm, λem=465 nm for at least 10 minutes at 37° C. […] Eight concentrations of inhibitors were tested. The final DMSO concentration in kept constant during the experiment to exclude any effects. Inhibitors were pre-incubated with the enzyme for 15 minutes at 37° C., afterwards the substrate was added and the velocities of AMC release were measured kinetically at λex=380 nm, λem=465 nm for at least 10 minutes at 37° C. […] At least eight different inhibitor concentrations were used. The final DMSO concentration is kept constant during the experiment to exclude any effects. Inhibitors were pre-incubated with the enzyme for 15 minutes at 37° C., afterwards the substrate was added and the velocities of pNA release were measured kinetically at 405 nm for at least 10 minutes at 37° C. Measurements were done on the Infinite 200 (Tecan Group Ltd.) and the Magellan software was used to process the data. • For DPP2: Initial velocity measurements were carried out. Lys-Ala-pNA was used as the substrate at a concentration of 1 mM at pH 5.5 (100 mM NaAc, 10 mM EDTA, 14 μg/mL aprotinin). Inhibitors were tested at one concentration, 5 μM, being the final concentration in the well. Inhibitors were pre-incubated with the enzyme for 15 minutes at 37° C., afterwards the substrate was added and the velocities of pNA release were measured kinetically at 405 nm for at least 10 minutes at 37° C. Measurements were done on the Infinite 200 (Tecan Group Ltd.) and the Magellan software was used to process the data.

In assay [2] the target is T2, Human recombinant PREP (Homo sapiens, UniProt P48147).
T2 construct: made in house; host or cells: E. coli BL21(DE3)
T2 sequence (P48147 1-710): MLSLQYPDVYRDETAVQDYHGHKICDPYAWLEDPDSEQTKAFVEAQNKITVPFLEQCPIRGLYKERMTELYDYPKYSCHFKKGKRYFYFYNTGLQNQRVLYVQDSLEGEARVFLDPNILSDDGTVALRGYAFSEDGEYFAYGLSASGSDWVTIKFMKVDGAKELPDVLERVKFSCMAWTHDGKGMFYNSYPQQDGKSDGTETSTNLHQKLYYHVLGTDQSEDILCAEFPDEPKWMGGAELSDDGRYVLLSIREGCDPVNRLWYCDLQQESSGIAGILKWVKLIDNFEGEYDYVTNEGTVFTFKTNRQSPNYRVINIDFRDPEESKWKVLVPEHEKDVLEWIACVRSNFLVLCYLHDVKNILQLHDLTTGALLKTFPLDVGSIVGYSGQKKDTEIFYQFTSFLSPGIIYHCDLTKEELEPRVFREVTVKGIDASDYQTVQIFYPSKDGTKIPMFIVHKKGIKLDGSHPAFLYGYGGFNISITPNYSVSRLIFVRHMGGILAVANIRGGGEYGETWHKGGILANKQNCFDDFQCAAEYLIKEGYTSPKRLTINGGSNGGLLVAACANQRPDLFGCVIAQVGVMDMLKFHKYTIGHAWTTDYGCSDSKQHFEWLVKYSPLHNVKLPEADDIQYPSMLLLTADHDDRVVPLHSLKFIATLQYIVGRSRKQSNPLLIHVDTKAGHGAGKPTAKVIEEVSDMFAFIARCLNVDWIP
Description: PREP IC50 measurement (N-succinyl-Gly-Pro-AMC). To be noted: for Selectivity index PREP: IC50(PREP)/IC50(FAP); for IC50: N-succinyl-Gly-Pro-AMC 250 μM, pH 7.4.
Description: as §1, §2

Assay [3] has as its target T3, human DPP9 (Homo sapiens, UniProt Q86TI2).
T3 construct: made in house; host or cells: Sf9 insect cells (baculovirus)
Description: DPP9 IC50 measurement (Ala-Pro-pNA). To be noted: for IC50: Ala-Pro-pNA 150 μM, pH 7.4; for Selectivity index DPP9: IC50(DPP9)/IC50(FAP).
Description: as §1, §2

Assay [4] deals with T4, human DPP8 (Homo sapiens, UniProt Q6V1X1).
T4 construct: made in house; host or cells: Sf9 insect cells (baculovirus)
T4 sequence (Q6V1X1 whole entry): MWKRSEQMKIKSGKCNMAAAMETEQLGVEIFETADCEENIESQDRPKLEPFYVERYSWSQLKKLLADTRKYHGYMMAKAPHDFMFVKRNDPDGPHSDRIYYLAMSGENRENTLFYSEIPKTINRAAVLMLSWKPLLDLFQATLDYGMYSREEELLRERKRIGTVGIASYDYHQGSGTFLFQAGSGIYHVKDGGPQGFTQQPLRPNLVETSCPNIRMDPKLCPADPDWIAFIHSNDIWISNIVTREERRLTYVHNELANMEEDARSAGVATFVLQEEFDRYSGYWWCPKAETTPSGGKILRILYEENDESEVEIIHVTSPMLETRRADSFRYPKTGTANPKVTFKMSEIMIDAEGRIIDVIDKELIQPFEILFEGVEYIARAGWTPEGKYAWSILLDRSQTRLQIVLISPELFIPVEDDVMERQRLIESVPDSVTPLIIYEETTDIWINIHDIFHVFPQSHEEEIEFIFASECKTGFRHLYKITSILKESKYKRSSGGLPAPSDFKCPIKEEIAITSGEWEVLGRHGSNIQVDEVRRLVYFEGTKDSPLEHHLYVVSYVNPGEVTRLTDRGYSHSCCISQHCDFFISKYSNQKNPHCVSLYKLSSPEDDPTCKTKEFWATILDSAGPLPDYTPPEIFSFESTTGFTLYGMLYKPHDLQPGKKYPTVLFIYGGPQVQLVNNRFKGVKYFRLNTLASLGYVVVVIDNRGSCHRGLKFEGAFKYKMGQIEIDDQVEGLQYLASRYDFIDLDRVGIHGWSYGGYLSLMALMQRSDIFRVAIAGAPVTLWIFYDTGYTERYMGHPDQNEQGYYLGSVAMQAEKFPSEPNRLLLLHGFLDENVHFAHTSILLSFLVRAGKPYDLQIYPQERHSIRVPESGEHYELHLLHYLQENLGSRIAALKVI
Description: DPP8 IC50 measurement (Ala-Pro-pNA). Conditions: for IC50: read-out: DPP8 IC50; for Selectivity index DPP8: IC50(DPP8)/IC50(FAP).
Description: as §1, §2

Assay [5] deals with T5, DPP4 (Homo sapiens, UniProt P27487).
T5 construct: DPP4 was purified from human seminal plasma; from tissue; host or cells: human seminal plasma
T5 sequence (P27487 whole entry): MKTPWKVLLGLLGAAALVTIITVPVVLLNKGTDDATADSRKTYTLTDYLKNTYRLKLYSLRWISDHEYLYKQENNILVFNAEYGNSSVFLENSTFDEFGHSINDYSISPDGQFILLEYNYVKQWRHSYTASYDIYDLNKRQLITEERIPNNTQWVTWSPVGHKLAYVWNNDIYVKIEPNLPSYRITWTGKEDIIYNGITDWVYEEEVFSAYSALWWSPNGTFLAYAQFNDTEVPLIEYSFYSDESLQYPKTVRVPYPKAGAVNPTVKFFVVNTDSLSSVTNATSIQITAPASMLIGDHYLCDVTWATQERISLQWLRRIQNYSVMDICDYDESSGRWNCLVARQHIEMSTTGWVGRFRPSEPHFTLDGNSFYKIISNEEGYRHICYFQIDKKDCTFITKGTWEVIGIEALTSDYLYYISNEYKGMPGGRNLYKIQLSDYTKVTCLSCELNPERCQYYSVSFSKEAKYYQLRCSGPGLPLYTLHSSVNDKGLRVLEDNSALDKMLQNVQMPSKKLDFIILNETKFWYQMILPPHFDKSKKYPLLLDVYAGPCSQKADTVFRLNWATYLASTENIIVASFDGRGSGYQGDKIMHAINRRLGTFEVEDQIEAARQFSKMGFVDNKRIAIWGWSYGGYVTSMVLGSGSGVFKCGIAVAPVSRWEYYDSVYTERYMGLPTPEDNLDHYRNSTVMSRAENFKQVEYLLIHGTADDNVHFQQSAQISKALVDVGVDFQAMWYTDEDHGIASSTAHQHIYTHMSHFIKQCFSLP
Description: DPP4 IC50 measurement (Ala-Pro-pNA). Conditions: for IC50: Ala-Pro-pNA 25 μM, pH 7.4; for Selectivity index DPP4: IC50(DPP4)/IC50(FAP).
Description: as §1, §2

T3 sequence (Q86TI2 whole entry): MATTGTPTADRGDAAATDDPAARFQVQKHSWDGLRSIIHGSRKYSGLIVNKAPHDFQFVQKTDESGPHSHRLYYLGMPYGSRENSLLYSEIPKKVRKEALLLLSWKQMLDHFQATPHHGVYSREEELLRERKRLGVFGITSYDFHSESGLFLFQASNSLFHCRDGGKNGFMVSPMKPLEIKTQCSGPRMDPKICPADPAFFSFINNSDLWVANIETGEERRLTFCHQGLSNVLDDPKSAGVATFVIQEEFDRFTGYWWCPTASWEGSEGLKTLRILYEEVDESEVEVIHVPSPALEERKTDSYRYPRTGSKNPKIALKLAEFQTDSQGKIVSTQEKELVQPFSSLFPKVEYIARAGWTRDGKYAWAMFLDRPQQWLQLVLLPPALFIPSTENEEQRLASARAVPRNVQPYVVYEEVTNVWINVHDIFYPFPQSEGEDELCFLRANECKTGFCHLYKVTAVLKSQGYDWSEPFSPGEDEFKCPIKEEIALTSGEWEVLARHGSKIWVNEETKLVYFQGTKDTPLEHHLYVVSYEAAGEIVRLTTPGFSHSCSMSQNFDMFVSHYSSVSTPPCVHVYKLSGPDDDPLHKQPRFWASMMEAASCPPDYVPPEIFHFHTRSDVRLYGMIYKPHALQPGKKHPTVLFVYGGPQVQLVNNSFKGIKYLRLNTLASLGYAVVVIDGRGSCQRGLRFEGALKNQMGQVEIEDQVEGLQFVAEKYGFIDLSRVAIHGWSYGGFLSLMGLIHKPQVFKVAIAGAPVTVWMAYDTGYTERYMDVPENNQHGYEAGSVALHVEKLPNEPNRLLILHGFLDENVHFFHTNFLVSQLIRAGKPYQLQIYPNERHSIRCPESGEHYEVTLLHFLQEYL

By IC50 is commonly meant the concentration at which inhibition is half-maximal. With `C[N+](C)(CF)CCCOc1ccc2nccc(C(=O)NCC(=O)N3CC(F)(F)C[C@H]3C#N)c2c1.Cc1ccc(S(=O)(=O)[O-])cc1` [Compound 4a, (S)-3-((4-((2-(2-cyano-4,4-difluoropyrrolidin-1-yl)-2-oxoethyl)carbamoyl)quinoline-6-yl)oxy)-N-(fluoromethyl)-N,N-dimethylpropan-1-aminium benzenesulfonate], the IC50 in assay [1] was 0.00032 ± 2e-05 µM; in assay [2] it was > 10 µM; in assay [3] it was > 10 µM; in assay [4] (Ala-Pro-pNA 300 μM, pH 7.4), > 10 µM; in assay [5], > 10 µM. Moreover, the “Selectivity index PREP” value in assay [2] is on record as >31000. The “Selectivity index DPP9” value in assay [3] is on record as >31000. Moreover, the “Selectivity index DPP8” value in assay [4] is >31000. The “Selectivity index DPP4” value in assay [5] is given as >31000.
For the molecule `C[N+](C)(CF)CCOc1ccc2nccc(C(=O)NCC(=O)N3CC(F)(F)C[C@H]3C#N)c2c1.Cc1ccc(S(=O)(=O)[O-])cc1` [Compound 4b, (S)-2-((4-((2-(2-cyano-4,4-difluoropyrrolidin-1-yl)-2-oxoethyl)carbamoyl)quinoline-6-yl)oxy)-N-(fluoromethyl)-N,N-dimethylethan-1-aminium 4-methylbenzenesulfonate], the IC50 was 0.00253 ± 0.00013 µM in assay [1]; > 10 µM in assay [2]; > 10 µM in assay [3]; > 10 µM in assay [4] (Ala-Pro-pNA 300 μM, pH 7.4); > 10 µM in assay [5]. Besides, the “Selectivity index PREP” value in assay [2] (4-methylbenzenesulfonate) is given as 4853; in assay [2] (listed as UAMC-0005086, 4-methylbenzenesulfonate) it was >4800. In assay [3], the “Selectivity index DPP9” value is on record as >4800. Moreover, the “Selectivity index DPP8” value in assay [4] is reported as >4800. For the same molecule, the “Selectivity index DPP4” value in assay [5] is on record as >4800.
For the molecule `C[N+](C)(C)CCOCCOCCOc1ccc2nccc(C(=O)NCC(=O)N3CC(F)(F)C[C@H]3C#N)c2c1.Cc1ccc(S(=O)(=O)[O-])cc1` [Compound 7, (S)-2-(2-(2-((4-((2-(2-cyano-4,4-difluoropyrrolidin-1-yl)-2-oxoethyl)carbamoyl)quinolin-6-yl)oxy)ethoxy)ethoxy)-N,N,N-trimethylethan-1-aminium 4-methylbenzenesulfonate], the IC50 in assay [1] is 0.00027 ± 2e-05 µM; in assay [2], > 10 µM; in assay [3], > 10 µM; in assay [4] (Ala-Pro-pNA 300 μM, pH 7.4), > 10 µM; in assay [5], > 10 µM. Moreover, in assay [2], the “Selectivity index PREP” value was >36000. In assay [3], the “Selectivity index DPP9” value is on record as >36000. Moreover, in assay [4], the “Selectivity index DPP8” value is reported as >36000. Besides, the “Selectivity index DPP4” value in assay [5] is listed as >36000.
With `C[N+](C)(CCF)CCOCCOc1ccc2nccc(C(=O)NCC(=O)N3CC(F)(F)C[C@H]3C#N)c2c1` [Compound 8, (S)-2-(2-((4-((2-(2-cyano-4,4-difluoropyrrolidin-1-yl)-2-oxoethyl)carbamoyl)quinolin-6-yl)oxy)ethoxy)-N-(2-fluoroethyl)-N,N-dimethylethan-1-aminium 4-methylbenzenesulfonate], the IC50 in assay [1] is 0.00942 ± 0.00344 µM; in assay [2] it was > 10 µM; in assay [3], > 10 µM; in assay [4] (Ala-Pro-pNA 300 μM, pH 7.4), > 10 µM; in assay [5], > 10 µM. Besides, in assay [2], the “Selectivity index PREP” value is >1300. Also, the “Selectivity index DPP9” value in assay [3] is on record as >1300. In addition, in assay [4], the “Selectivity index DPP8” value is given as >1300. In addition, in assay [5], the “Selectivity index DPP4” value is >1300.
Consider `C[N+](C)(CF)CCOCCOc1ccc2nccc(C(=O)NCC(=O)N3CC(F)(F)C[C@H]3C#N)c2c1.Cc1ccc(S(=O)(=O)[O-])cc1` [Compound 9, (S)-2-(2-((4-((2-(2-cyano-4,4-difluoropyrrolidin-1-yl)-2-oxoethyl)carbamoyl)quinolin-6-yl)oxy)ethoxy)-N-(fluoromethyl)-N,N-dimethylethan-1-aminium 4-methylbenzenesulfonate], for which the IC50 is 0.00049 ± 1e-06 µM in assay [1] and 5.33 ± 0.71 µM in assay [2]. Besides, the “Selectivity index PREP” value in assay [2] is listed as >10000. Besides, the “Selectivity index DPP9” value in assay [3] is >20000. Moreover, in assay [4], the “Selectivity index DPP8” value is >20000. Besides, the “Selectivity index DPP4” value in assay [5] was >20000.
With `C[N+](C)(CF)CCOCCOCCOc1ccc2nccc(C(=O)NCC(=O)N3CC(F)(F)C[C@H]3C#N)c2c1` [Compound 10, (S)-2-(2-(2-((4-((2-(2-cyano-4,4-difluoropyrrolidin-1-yl)-2-oxoethyl)carbamoyl)quinolin-6-yl)oxy)ethoxy)ethoxy)-N-(fluoromethyl)-N,N-dimethylethan-1-aminium hexafluorophosphate(V)], the IC50 in assay [1] was 0.00046 ± 4e-05 µM; in assay [2] it was > 1 µM; in assay [3] it was > 10 µM; in assay [4] (Ala-Pro-pNA 300 μM, pH 7.4), > 10 µM; in assay [5], > 1 µM. The “Selectivity index PREP” value in assay [2] is >2100. Besides, the “Selectivity index DPP9” value in assay [3] is >21000. The “Selectivity index DPP8” value in assay [4] is >21000. For the same molecule, the “Selectivity index DPP4” value in assay [5] is reported as >2100.
Consider `N#C[C@@H]1CC(F)(F)CN1C(=O)CNC(=O)c1ccnc2ccccc12` [UAMC1110, reference compound], for which the IC50 in assay [4] (heading: DPP8 IC50) was > 10 µM.
